The text below walks through data of patent publication US12371454B2, “Cyclic peptide compound having Kras inhibitory action” (priority 2019, dated 2025).

Each structure is given as a SMILES string. Starred links: 1 amine or outer side, 2 acyl side, 3 side chain; linkers in the order of their positions; H or OH if unused. Positions of bridges follow the written chain, without caps; N, C: chain ends. Non-standard residues stand in square brackets, D forms with d. Residues, ends and D or L forms follow the SMILES beside them. *: point of attachment. hPhe(3,5-F2-4-CF3) = N[C@@H](CCc1cc(F)c(C(F)(F)F)c(F)c1)C(=O)O; hPhe(3-Cl-4-CF3) = N[C@@H](CCc1ccc(C(F)(F)F)c(Cl)c1)C(=O)O; NMePhe(4-CF3) = CN[C@@H](Cc1ccc(C(F)(F)F)cc1)C(=O)O; NMePhe(3-OMe) = CN[C@@H](Cc1cccc(OC)c1)C(=O)O; NMePhe(4-CN) = CN[C@@H](Cc1ccc(C#N)cc1)C(=O)O; NMePhe(4-Br) = CN[C@@H](Cc1ccc(Br)cc1)C(=O)O; NMePhe(4-Me) = CN[C@@H](Cc1ccc(C)cc1)C(=O)O; NMePhe(3-I) = CN[C@@H](Cc1cccc(I)c1)C(=O)O; NMePhe(4-F) = CN[C@@H](Cc1ccc(F)cc1)C(=O)O; NMeNva(5,5-F2) = CN[C@@H](CCC(F)F)C(=O)O; dβ3hPip = O=C(C[C@H]1CCCCN1[*:1])[*:2]; NMe4Pal = CN[C@@H](Cc1ccncc1)C(=O)O; NMeY = CN[C@@H](Cc1ccc(O)cc1)C(=O)O; NMeCha = CN[C@@H](CC1CCCCC1)C(=O)O; NMeChg = CN[C@H](C(=O)O)C1CCCCC1; NMeI = CC[C@H](C)[C@H](NC)C(=O)O; d(β3hL) = CC(C)C[C@@H](N)CC(=O)O; dNMeF = CN[C@H](Cc1ccccc1)C(=O)O; NMeD = CN[C@@H](CC(=O)O)C(=O)O; NMeL = CN[C@@H](CC(C)C)C(=O)O; NMeA = CN[C@@H](C)C(=O)O; Piperidide = C1CCN(*)CC1; Pyrrolidide = C1CCN(*)C1; Ac5c = NC1(C(=O)O)CCCC1; Aze = O=C(O)[C@@H]1CCN1; Ac4c = NC1(C(=O)O)CCC1; CF3 = FC(F)(F)*; Sar = CNCC(=O)O

For the test, the target named is T1, Kras and SOS1 (biotin-tagged human Kras loaded with GDP, His-tagged human SOS1) (Homo sapiens, UniProt P01116, G12D).
T1 construct: made in house; host or cells: E. coli (stated for Kras only)
T1 sequence (P01116 1-188 isoform P01116-2 G12D): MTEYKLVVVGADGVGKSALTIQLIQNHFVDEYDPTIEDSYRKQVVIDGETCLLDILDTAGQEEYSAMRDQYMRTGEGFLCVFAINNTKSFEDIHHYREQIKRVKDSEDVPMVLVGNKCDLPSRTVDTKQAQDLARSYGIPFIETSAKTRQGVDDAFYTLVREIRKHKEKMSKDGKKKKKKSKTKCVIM
Briefly: Protein-protein interaction inhibition between Kras and SOS1 (KrasGl2D-SOS PPI) using AlphaScreen. To be noted: AlphaScreen; biotin-tagged human Kras loaded with GDP, His-tagged human SOS1; read-out: KRAS G12D-SOS PPI IC50. The class given is binding. The method, boiled down: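 AlphaScreen format: Ni donor beads capture His-SOS1, streptavidin acceptor beads capture biotinylated Kras (E. coli-expressed, GDP-loaded post-purification). Excite 680 nm, read 520-620 nm.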

Take `CC[C@H](C)[C@@H]1NC(=O)[C@H](C)N(C)C(=O)C[C@@H](C(=O)N(C)C)N(C)C(=O)[C@H]([C@@H](C)CC)N(C)C(=O)C2(CCCC2)NC(=O)[C@H](Cc2ccc(Br)cc2)N(C)C(=O)[C@H](CCc2ccc(C(F)(F)F)c(Cl)c2)NC(=O)CN(C)C(=O)[C@H](Cc2ccc(C)cc2)N(C)C(=O)[C@@H]2CCN2C(=O)[C@H](C)N(C)C1=O` [Compound 1893] ([NMeA]I[NMeA][Aze][NMePhe(4-Me)][Sar][hPhe(3-Cl-4-CF3)][NMePhe(4-Br)][Ac5c][NMeI][NMeD]-NMe2; lactam N-11): the IC50 turned out to be 14 nM.
The value for `CC[C@H](C)[C@@H]1NC(=O)[C@H](CC(C)C)N(C)C(=O)C[C@@H](C(=O)N2CCCC2)N(C)C(=O)[C@H](C2CCCCC2)N(C)C(=O)C2(CCC2)NC(=O)[C@@H]2CCCN2C(=O)[C@H](CCc2ccc(C(F)(F)F)c(Cl)c2)NC(=O)CN(C)C(=O)[C@H](CC2CCCCC2)N(C)C(=O)CN(C)C(=O)CN(C)C1=O` [Compound 1894] ([NMeL]I[Sar][Sar][NMeCha][Sar][hPhe(3-Cl-4-CF3)]P[Ac4c][NMeChg][NMeD]-Pyrrolidide; lactam N-11) was 0.55 nM; that for `CC[C@H](C)[C@@H]1NC(=O)[C@H](CC(C)C)N(C)C(=O)C[C@@H](C(=O)N2CCCCC2)N(C)C(=O)[C@H]([C@@H](C)CC)N(C)C(=O)C2(CCCC2)NC(=O)[C@@H](Cc2ccccc2)N(C)C(=O)[C@H](CCc2cc(F)c(C(F)(F)F)c(F)c2)NC(=O)CN(C)C(=O)[C@H](Cc2ccc(C)cc2)N(C)C(=O)[C@@H]2CCN2C(=O)[C@H](C)N(C)C1=O` [Compound 1895] ([NMeL]I[NMeA][Aze][NMePhe(4-Me)][Sar][hPhe(3,5-F2-4-CF3)][dNMeF][Ac5c][NMeI][NMeD]-Piperidide; lactam N-11) was 360 nM.
The value for `CC[C@H](C)[C@@H]1NC(=O)[C@H](CC(C)C)N(C)C(=O)C[C@@H](C(=O)N(C)C)N(C)C(=O)[C@H]([C@@H](C)CC)N(C)C(=O)[C@H](C(C)C)NC(=O)[C@H](Cc2ccncc2)N(C)C(=O)[C@H](CCc2ccc(C(F)(F)F)c(Cl)c2)NC(=O)CN(C)C(=O)[C@H](Cc2ccc(C)cc2)N(C)C(=O)[C@@H]2CCN2C(=O)[C@H](C)N(C)C1=O` [Compound 1897] ([NMeL]I[NMeA][Aze][NMePhe(4-Me)][Sar][hPhe(3-Cl-4-CF3)][NMe4Pal]V[NMeI][NMeD]-NMe2; lactam N-11) was 9.9 nM.
To `CC[C@H](C)[C@@H]1NC(=O)[C@H](CC(C)C)N(C)C(=O)C[C@@H](C(=O)N(C)C)N(C)C(=O)[C@H]([C@@H](C)CC)N(C)C(=O)C2(CCCC2)NC(=O)[C@H](CCC(F)F)N(C)C(=O)[C@H](CCc2ccc(C(F)(F)F)c(Cl)c2)NC(=O)CN(C)C(=O)[C@H](Cc2ccc(C)cc2)N(C)C(=O)[C@@H]2CCN2C(=O)[C@H](C)N(C)C1=O` [Compound 1898] ([NMeL]I[NMeA][Aze][NMePhe(4-Me)][Sar][hPhe(3-Cl-4-CF3)][NMeNva(5,5-F2)][Ac5c][NMeI][NMeD]-NMe2; lactam N-11) belongs 0.93 nM; to `CC[C@H](C)[C@@H]1NC(=O)[C@H](CC(C)C)N(C)C(=O)C[C@@H](C(=O)N(C)C)N(C)C(=O)[C@H]([C@@H](C)CC)N(C)C(=O)C2(CCCC2)NC(=O)[C@H](Cc2ccc(OC(F)(F)F)cc2)N(C)C(=O)[C@H](CCc2ccc(C(F)(F)F)c(Cl)c2)NC(=O)CN(C)C(=O)[C@H](Cc2ccc(C)cc2)N(C)C(=O)[C@@H]2CCN2C(=O)[C@H](C)N(C)C1=O` [Compound 1902] ([NMeL]I[NMeA][Aze][NMePhe(4-Me)][Sar][hPhe(3-Cl-4-CF3)][NMeY](CF3)[Ac5c][NMeI][NMeD]-NMe2; lactam N-11), 54 nM.
For the compound `CC[C@H](C)[C@@H]1NC(=O)[C@H](C)N(C)C(=O)C[C@@H](C(=O)N(C)C)N(C)C(=O)[C@H]([C@@H](C)CC)N(C)C(=O)C2(CCCC2)NC(=O)[C@H](Cc2ccc(OC)cc2)N(C)C(=O)[C@H](CCc2ccc(C(F)(F)F)c(Cl)c2)NC(=O)CN(C)C(=O)[C@H](Cc2ccc(C)cc2)N(C)C(=O)[C@@H]2CCN2C(=O)[C@H](C)N(C)C1=O` [Compound 1903] ([NMeA]I[NMeA][Aze][NMePhe(4-Me)][Sar][hPhe(3-Cl-4-CF3)][NMeY](Me)[Ac5c][NMeI][NMeD]-NMe2; lactam N-11), the IC50 was 4 nM.
The value for `CC[C@H](C)[C@@H]1NC(=O)[C@H](CC(C)C)N(C)C(=O)C[C@@H](C(=O)N(C)C)N(C)C(=O)[C@H]([C@@H](C)CC)N(C)C(=O)C2(CCCC2)NC(=O)[C@@H](Cc2ccccc2)N(C)C(=O)[C@H](CCc2ccc(C(F)(F)F)c(Cl)c2)NC(=O)CN(C)C(=O)[C@H](Cc2ccc(C)cc2)N(C)C(=O)[C@@H]2CCN2C(=O)[C@H](C)N(C)C1=O` [Compound 1909] ([NMeL]I[NMeA][Aze][NMePhe(4-Me)][Sar][hPhe(3-Cl-4-CF3)][dNMeF][Ac5c][NMeI][NMeD]-NMe2; lactam N-11) was 110 nM; that for `CC[C@H](C)[C@@H]1NC(=O)[C@H](CC(C)C)N(C)C(=O)C[C@@H](C(=O)N(C)C)N(C)C(=O)[C@H]([C@@H](C)CC)N(C)C(=O)C2(CCCC2)NC(=O)[C@H](Cc2cccc(I)c2)N(C)C(=O)[C@H](CCc2ccc(C(F)(F)F)c(Cl)c2)NC(=O)CN(C)C(=O)[C@H](Cc2ccc(C)cc2)N(C)C(=O)[C@@H]2CCN2C(=O)[C@H](C)N(C)C1=O` [Compound 1910] ([NMeL]I[NMeA][Aze][NMePhe(4-Me)][Sar][hPhe(3-Cl-4-CF3)][NMePhe(3-I)][Ac5c][NMeI][NMeD]-NMe2; lactam N-11) was 60 nM.
The value for `CC[C@H](C)[C@@H]1NC(=O)[C@H](CC(C)C)N(C)C(=O)C[C@H]2CCCCN2C(=O)[C@H]([C@@H](C)CC)N(C)C(=O)C2(CCCC2)NC(=O)[C@@H]2CCCN2C(=O)[C@H](CCc2ccc(C(F)(F)F)c(Cl)c2)NC(=O)CN(C)C(=O)[C@H](Cc2ccc(C)cc2)N(C)C(=O)[C@@H]2CCN2C(=O)[C@H](C)N(C)C1=O` [Compound 1912] (cyclo([Ac5c][NMeI][dβ3hPip][NMeL]I[NMeA][Aze][NMePhe(4-Me)][Sar][hPhe(3-Cl-4-CF3)]P)) was 27 nM; that for `CC[C@H](C)[C@@H]1NC(=O)[C@H](C)N(C)C(=O)C[C@@H](C(=O)N(C)C)N(C)C(=O)[C@H]([C@@H](C)CC)N(C)C(=O)C2(CCCC2)NC(=O)[C@H](Cc2ccc(F)cc2)N(C)C(=O)[C@H](CCc2cc(F)c(C(F)(F)F)c(F)c2)NC(=O)CN(C)C(=O)[C@H](Cc2ccc(C)cc2)N(C)C(=O)[C@@H]2CCN2C(=O)[C@H](C)N(C)C1=O` [Compound 1914] ([NMeA]I[NMeA][Aze][NMePhe(4-Me)][Sar][hPhe(3,5-F2-4-CF3)][NMePhe(4-F)][Ac5c][NMeI][NMeD]-NMe2; lactam N-11) was 7.7 nM; that for `CC[C@H](C)[C@@H]1NC(=O)[C@H](CC(C)C)N(C)C(=O)C[C@@H](CC(C)C)NC(=O)[C@H]([C@@H](C)CC)N(C)C(=O)C2(CCCC2)NC(=O)[C@@H]2CCCN2C(=O)[C@H](CCc2cc(F)c(C(F)(F)F)c(F)c2)NC(=O)CN(C)C(=O)[C@H](Cc2ccc(C(F)(F)F)cc2)N(C)C(=O)[C@@H]2CCN2C(=O)[C@H](C)N(C)C1=O` [Compound 1918] (cyclo([Ac5c][NMeI][d(β3hL)][NMeL]I[NMeA][Aze][NMePhe(4-CF3)][Sar][hPhe(3,5-F2-4-CF3)]P)) was 280 nM.
To `CC[C@H](C)[C@@H]1NC(=O)[C@H](C)N(C)C(=O)C[C@@H](C(=O)N(C)C)N(C)C(=O)[C@H]([C@@H](C)CC)N(C)C(=O)C2(CCCC2)NC(=O)[C@H](Cc2cccc(OC)c2)N(C)C(=O)[C@H](CCc2ccc(C(F)(F)F)c(Cl)c2)NC(=O)CN(C)C(=O)[C@H](Cc2ccc(C)cc2)N(C)C(=O)[C@@H]2CCN2C(=O)[C@H](C)N(C)C1=O` [Compound 1922] ([NMeA]I[NMeA][Aze][NMePhe(4-Me)][Sar][hPhe(3-Cl-4-CF3)][NMePhe(3-OMe)][Ac5c][NMeI][NMeD]-NMe2; lactam N-11) belongs 3.1 nM.
As for `CC[C@H](C)[C@@H]1NC(=O)[C@H](CC(C)C)N(C)C(=O)C[C@@H](C(=O)N(C)C)N(C)C(=O)[C@H]([C@@H](C)CC)N(C)C(=O)C2(CCCC2)NC(=O)[C@H](Cc2ccc(C#N)cc2)N(C)C(=O)[C@H](CCc2ccc(C(F)(F)F)c(Cl)c2)NC(=O)CN(C)C(=O)[C@H](Cc2ccc(C)cc2)N(C)C(=O)[C@@H]2CCN2C(=O)[C@H](C)N(C)C1=O` [Compound 1927] ([NMeL]I[NMeA][Aze][NMePhe(4-Me)][Sar][hPhe(3-Cl-4-CF3)][NMePhe(4-CN)][Ac5c][NMeI][NMeD]-NMe2; lactam N-11), the concentration for half-maximal inhibition (IC50) turned out to be 3.3 nM.
Turning to `CC[C@H](C)[C@@H]1NC(=O)[C@H](CC(C)C)N(C)C(=O)C[C@@H](C(=O)N(C)C)N(C)C(=O)[C@H]([C@@H](C)CC)N(C)C(=O)C2(CCCC2)NC(=O)[C@H](Cc2ccc(OC)cc2)N(C)C(=O)[C@H](CCc2ccc(C(F)(F)F)c(Cl)c2)NC(=O)CN(C)C(=O)[C@H](Cc2ccc(C)cc2)N(C)C(=O)[C@@H]2CCN2C(=O)[C@H](C)N(C)C1=O` [Compound 1935] ([NMeL]I[NMeA][Aze][NMePhe(4-Me)][Sar][hPhe(3-Cl-4-CF3)][NMeY](Me)[Ac5c][NMeI][NMeD]-NMe2; lactam N-11), the 50% inhibitory concentration (IC50) was 11 nM.
As to `CC[C@H](C)[C@@H]1NC(=O)[C@H](C)N(C)C(=O)C[C@@H](C(=O)N2CCCCC2)N(C)C(=O)[C@H]([C@@H](C)CC)N(C)C(=O)C2(CCCC2)NC(=O)[C@@H](Cc2ccccc2)N(C)C(=O)[C@H](CCc2ccc(C(F)(F)F)c(Cl)c2)NC(=O)CN(C)C(=O)[C@H](Cc2ccc(C(F)(F)F)cc2)N(C)C(=O)[C@@H]2CCN2C(=O)[C@H](C)N(C)C1=O` [Compound 1942] ([NMeA]I[NMeA][Aze][NMePhe(4-CF3)][Sar][hPhe(3-Cl-4-CF3)][dNMeF][Ac5c][NMeI][NMeD]-Piperidide; lactam N-11), the IC50 is 290 nM.
